One data set concerns the target ERβ (Homo sapiens, UniProt Q92731). As to the kind of experiment: biochemical.
The target in the next data set is ERα (Homo sapiens, UniProt P03372). As to the kind of experiment: biochemical.

Molecules are shown by their SMILES. Where a name gives a salt, the structure may show the parent alone.

Sequence of ERα (P03372 whole entry): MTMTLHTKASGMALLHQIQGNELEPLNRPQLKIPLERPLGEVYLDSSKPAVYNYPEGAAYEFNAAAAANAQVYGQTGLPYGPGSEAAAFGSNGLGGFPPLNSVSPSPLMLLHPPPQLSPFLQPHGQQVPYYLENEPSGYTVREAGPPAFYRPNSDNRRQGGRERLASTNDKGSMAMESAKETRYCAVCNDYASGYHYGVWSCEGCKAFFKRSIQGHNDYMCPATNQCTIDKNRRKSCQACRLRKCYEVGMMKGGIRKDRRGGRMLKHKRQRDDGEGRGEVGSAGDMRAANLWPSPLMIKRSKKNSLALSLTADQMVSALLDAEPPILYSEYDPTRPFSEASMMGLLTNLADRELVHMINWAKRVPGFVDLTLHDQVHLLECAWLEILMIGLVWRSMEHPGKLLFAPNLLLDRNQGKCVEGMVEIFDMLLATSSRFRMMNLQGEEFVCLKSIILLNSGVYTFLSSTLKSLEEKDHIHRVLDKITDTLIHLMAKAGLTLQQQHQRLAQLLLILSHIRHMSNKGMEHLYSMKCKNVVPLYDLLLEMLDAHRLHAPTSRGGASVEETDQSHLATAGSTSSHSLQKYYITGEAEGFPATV
Sequence of ERβ (Q92731 whole entry, species assumed): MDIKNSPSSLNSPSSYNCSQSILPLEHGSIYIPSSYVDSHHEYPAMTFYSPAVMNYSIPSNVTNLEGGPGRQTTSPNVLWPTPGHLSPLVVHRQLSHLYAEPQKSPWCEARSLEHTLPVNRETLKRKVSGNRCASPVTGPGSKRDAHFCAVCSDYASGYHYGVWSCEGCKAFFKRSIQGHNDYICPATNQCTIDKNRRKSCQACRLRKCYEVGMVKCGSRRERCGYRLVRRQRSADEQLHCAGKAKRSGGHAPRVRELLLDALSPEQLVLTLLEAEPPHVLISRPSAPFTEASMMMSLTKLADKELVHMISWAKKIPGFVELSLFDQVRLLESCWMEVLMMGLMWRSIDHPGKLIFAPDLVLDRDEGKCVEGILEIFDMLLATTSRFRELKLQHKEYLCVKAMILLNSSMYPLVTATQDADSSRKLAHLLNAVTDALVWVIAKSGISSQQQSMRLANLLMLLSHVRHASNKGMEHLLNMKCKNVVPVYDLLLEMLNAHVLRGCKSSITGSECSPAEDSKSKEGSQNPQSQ

For the molecule `O/N=C/c1ccc(-c2ccc(O)c(F)c2)c(Cl)c1Cl` (as salt: salt) [Example 57, 2,3-Dichloro-3′-fluoro-4′-hydroxy-1,1′-biphenyl-4-carbaldehyde oxime], the melting point fell in the range of 225 to 227 °C.

Turning to `Cc1cc(-c2ccc(O)cc2)ccc1/C=N/O` [Example 29, 4′-Hydroxy-3-methyl[1,1′-biphenyl]-4-carbaldehyde oxime], the melting point is 195 to 197 °C. The molecule also returned an IC50 against ERβ of 0.163 µM. For the same molecule, on ERα, the IC50 came out at 3.19 µM.

In turn, `O/N=C/c1ccc(-c2ccc(O)cc2)cc1` [Example 30, 4′-Hydroxy[1,1′-biphenyl]-4-carbaldehyde oxime] had a melting point of 207 to 210 °C. In addition, the IC50 on ERβ is 3.84 µM. In addition, the IC50 against ERα is more than 5 µM.

Take `O/N=C/c1ccc(-c2ccc(O)cc2)cc1Cl` [Example 31, 3-Chloro-4′-hydroxy[1,1′-biphenyl]-4-carbaldehyde oxime]: the melting point lay within 187 to 189 °C. At ERβ, this molecule displayed an IC50 of 0.085 µM. In addition, the IC50 against ERα came out at 1.54 µM.

Turning to `O/N=C/c1ccc(-c2ccc(O)cc2)c(F)c1` [Example 32, 2-Fluoro-4′-hydroxy-1,1′-biphenyl-4-carbaldehyde oxime], the melting point was 178 to 180 °C. Moreover, the IC50 at ERβ is 0.421 µM. The molecule also showed an IC50 at ERα of 3.45 µM.

`O/N=C/c1ccc(-c2ccc(O)cc2)cc1F` [Example 33, 3-Fluoro-4′-hydroxy-1,1′-biphenyl-4-carbaldehyde oxime]: the IC50 at ERβ is 0.161 µM; at ERα, 1.72 µM.

`O/N=C/c1ccc(-c2ccc(O)cc2)c(Cl)c1` [Example 34, 2-Chloro-4′-hydroxy-1,1′-biphenyl-4-carbaldehyde oxime] displayed a melting point of 178 to 179 °C. Also, 0.098 µM corresponded to half-maximal inhibition against ERβ (IC50). This molecule also had an IC50 at ERα of 0.398 µM.

Molecule `COc1cc(-c2ccc(O)cc2)ccc1/C=N/O` [Example 35, 4′-Hydroxy-3-methoxy-1,1′-biphenyl-4-carbaldehyde oxime] registered a melting point of 228 to 230 °C. Further, the IC50 against ERβ turned out to be 1.06 µM. Further, 7.99 µM corresponded to half-maximal inhibition against ERα (IC50).

Take `Cc1cc(/C=N/O)ccc1-c1ccc(O)cc1` [Example 36, 4′-Hydroxy-2-methyl-1,1′-biphenyl-4-carbaldehyde oxime]: the melting point was in the range of 169 to 171 °C. The same molecule came in with an IC50 against ERβ of 0.585 µM. In addition, on ERα, 2.82 µM corresponded to half-maximal inhibition (IC50).

In turn, `O/N=C/c1ccc(-c2ccc(O)c(F)c2)cc1Cl` [Example 37, 3-Chloro-3′-fluoro-4′-hydroxy-1,1′-biphenyl-4-carbaldehyde oxime] had a melting point of 198 to 200 °C. Further, at ERβ, the IC50 came out at 0.054 µM. The molecule further showed an IC50 at ERα of 1.91 µM.

The molecule `O/N=C/c1ccc(-c2cc(F)c(O)c(F)c2)cc1Cl` [Example 38, 3-Chloro-3′, 5′-fluoro-4′-hydroxy-1,1′-biphenyl-4-carbaldehyde oxime] yielded a melting point of 216 to 219 °C. This molecule gave an IC50 against ERβ of 0.268 µM. The IC50 at ERα was more than 7 µM.

Molecule `Cc1cc(O)ccc1-c1ccc(/C=N/O)c(Cl)c1` [Example 39, 3-Chloro-4′-hydroxy-2′-methyl-1,1′-biphenyl-4-carbaldehyde oxime] had a melting point of 169 to 171 °C. For the same molecule, the midpoint of inhibition at ERβ, the IC50, lay at 0.027 µM. This molecule also came in with an IC50 against ERα of 0.174 µM.

On to `O/N=C/c1c(Cl)cc(-c2ccc(O)cc2)cc1Cl` [Example 54, 3,5-Dichloro-4′-hydroxy-1,1′-biphenyl-4-carbaldehyde oxime], for which the melting point was in the range of 183 to 186 °C. Besides, 0.008 µM corresponded to half-maximal inhibition on ERβ (IC50). At ERα, 0.064 µM corresponded to half-maximal inhibition (IC50).

Turning to `O/N=C/c1c(Cl)cc(-c2ccc(O)c(F)c2)cc1Cl` [Example 55, 3,5-Dichloro-3′-fluoro-4′-hydroxy-1,1′-biphenyl-4-carbaldehyde oxime], the melting point was 185 to 190 °C.

In turn, `O/N=C/c1ccc(-c2ccc(O)cc2)c(Cl)c1Cl` [Example 56, 2,3-Dichloro-4′-hydroxy-1,1′-biphenyl-4-carbaldehyde oxime] registered a melting point of 208 to 210 °C. This molecule yielded an IC50 against ERβ of 0.049 µM. In addition, the IC50 on ERα was found to be 0.851 µM.

Take `O/N=C/c1ccc(-c2ccc(O)c(F)c2)c(Cl)c1Cl` [Example 57, 2,3-Dichloro-3′-fluoro-4′-hydroxy-1,1′-biphenyl-4-carbaldehyde oxime]: the IC50 against ERβ is 0.081 µM; against ERα it was 1.96 µM.

As usually defined, the melting point is the temperature of the solid-liquid transition. The IC50 is the point on the concentration scale where inhibition reaches its midpoint.

The values above are taken from patent US7279600B2, “Hydroxy-biphenyl-carbaldehyde oxime derivatives and their use as estrogenic agents” (Wyeth, priority 2003, dated 2007).
